Measured values: EPA's ToxValDB 9.5 (doi:10.2903/j.efsa.2010.1722)
≈ marks a conversion by molar mass, not a printed value.

Tests used:
Aphidius matricariae [1] = assay: LR50; higher = less toxic; settings: not reported; mortality
Apis mellifera = settings: acute, mortality
Canidae = settings: oral, Dog Other
Colinus virginianus = settings: reproduction developmental
Oncorhynchus mykiss = settings: chronic/long-term; duration: 28 days; growth
Anas platyrhynchos = settings: oral, mortality
Aphidius matricariae [2] = settings: not reported; reproduction
Mus musculus = settings: acute; oral; mortality
Daphnia magna = settings: chronic/long-term; duration: 21 days; reproduction
Tagia sp. = settings: acute; duration: 14 days; mortality
Bibionidae = settings: chronic/long-term; duration: 21 days; other
Lepomis macrochirus = settings: acute; duration: 96 hours; mortality

C[C@H]1[C@H](c2ccc(Cl)cc2)SC(=O)N1C(=O)NC1CCCCC1 [Hexythiazox]
LR50 (Aphidius matricariae [1]): > 158 g/ha | LD50 (Apis mellifera; dermal): > 200 µg/piece | LD50 (Apis mellifera; duration: 48 hours, oral, unspecified): > 112 µg/piece | LD50 (Canidae; acute, mortality): > 5000 mg/kg | NOAEL (Canidae; chronic, duration: 1 years, histopathology: nonneoplastic): 2.87 mg/kg-day | NOEC (Colinus virginianus): 100 mg/kg-day | NOEC (Oncorhynchus mykiss): 0.04 mg/L | LD50 (Anas platyrhynchos; acute, unspecified): > 2000 mg/kg | LC50 (Anas platyrhynchos; short-term, feed): > 523 mg/kg-day | LEL (Aphidius matricariae [2]): 158 g/ha | LD50 (Mus musculus): > 5000 mg/kg | LD50 (Rattus norvegicus; acute, oral, mortality): > 5000 mg/kg | NOEL (Rattus norvegicus; chronic): 23.5 mg/kg-day | NOAEL (Rattus norvegicus; chronic, duration: 2 years, clinical chemistry): 3.2 mg/kg-day | NOEC (Daphnia magna): 0.0061 mg/L | LC50 (Tagia sp.): > 105 mg/kg | NOEC (Bibionidae): 1.7 mg/L | LC50 (Lepomis macrochirus): 3.2 µg/mL (≈ 9.07 µM)
